From EP4789665A1, “TREATMENT OF HIS HYPORESPONDERS” (NewAmsterdam Pharma B.V., priority 2021, dated 2023)
Values joined by “and” are separate entries in the source; they are usually repeats but may differ in a detail not shown here. Identical values can stand only once.

Molecular target: T1, CETP (Homo sapiens, UniProt P11597)
T1 construct: endogenous in cells; host or cells: trial patients (in vivo, circulating plasma CETP)
T1 sequence (P11597 18-493): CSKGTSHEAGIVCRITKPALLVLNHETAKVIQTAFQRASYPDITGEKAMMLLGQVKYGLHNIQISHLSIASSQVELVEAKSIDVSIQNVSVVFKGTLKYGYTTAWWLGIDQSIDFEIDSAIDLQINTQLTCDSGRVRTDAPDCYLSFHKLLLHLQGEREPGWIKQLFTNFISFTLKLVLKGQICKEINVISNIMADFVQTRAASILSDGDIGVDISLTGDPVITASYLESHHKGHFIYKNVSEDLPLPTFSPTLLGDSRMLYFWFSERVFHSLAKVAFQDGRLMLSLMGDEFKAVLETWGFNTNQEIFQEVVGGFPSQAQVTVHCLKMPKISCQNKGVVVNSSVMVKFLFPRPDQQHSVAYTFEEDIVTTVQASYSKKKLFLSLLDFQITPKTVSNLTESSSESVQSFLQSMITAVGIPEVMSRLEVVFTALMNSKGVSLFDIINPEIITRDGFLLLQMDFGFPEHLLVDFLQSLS
Experiment: Placebo-controlled, double-blind, randomized phase 2 study of obicetrapib as adjunct to high-intensity statin therapy: lipoprotein lipid and apolipoprotein responses
Type: in vivo
Settings: for LDL-C by PUC, % Change from Baseline LS mean (95% CI) / LDL-C reduced from baseline (Friedewald formula) / Apo B reduced by / Lp(a) reduced by / non-HDL-C reduced by: 8 weeks; for LDL-C by PUC, % Change from Baseline LS mean (95% CI) / Apo A1 Week 8 change, LS Mean ± SE / Apo B Week 8 change, LS Mean ± SE / HDL-C Week 8 change, LS Mean ± SE / LDL-C (Martin-Hopkins) Week 8 change, LS Mean ± SE / Lp(a) Week 8 change, LS Mean ± SE / Non-HDL-C Week 8 change, LS Mean ± SE / TG Week 8 change, LS Mean ± SE / VLDL-C Week 8 change, LS Mean ± SE / LDL-C (PUC) Week 8 change, LS Mean ± SE / LDL-C reduced from baseline (Friedewald formula) / Apo B reduced by / Lp(a) reduced by / non-HDL-C reduced by: adjunct to high-intensity statin; for LDL-C by PUC, % Change from Baseline LS mean (95% CI): Table 3; for Apo A1 Week 8 change, Median (min, max) / LDL-C (Martin-Hopkins) Week 8 change, Median (min, max) / Lp(a) Week 8 change, Median (min, max) / TG Week 8 change, Median (min, max) / VLDL-C Week 8 change, Median (min, max): adjunct to high-intensity statin therapy; for Apo A1 Week 8 change, LS Mean ± SE / Apo B Week 8 change, LS Mean ± SE / HDL-C Week 8 change, LS Mean ± SE / LDL-C (Martin-Hopkins) Week 8 change, LS Mean ± SE / Lp(a) Week 8 change, LS Mean ± SE / Non-HDL-C Week 8 change, LS Mean ± SE / TG Week 8 change, LS Mean ± SE / VLDL-C Week 8 change, LS Mean ± SE / LDL-C by Friedewald, % Change from Baseline LS mean: MMRM; for LDL-C (PUC) Week 8 change, LS Mean ± SE: analysis of covariance model, Table 9; for ApoB, % change from Baseline Median / HDL-C, % change from Baseline Median / LDL-C by Friedewald, % Change from Baseline (median) / LDL-C by PUC, % Change from Baseline (median) / Non-HDL-C, % Change from Baseline (median): week 8, adjunct to high-intensity statin therapy; for LDL-C by Friedewald, % Change from Baseline LS mean: week 8, adjunct to high-intensity statin; for LDL-C reduced from baseline (Friedewald formula): primary analysis; for LDL-C reduced from baseline (Friedewald formula) / Apo B reduced by / Lp(a) reduced by / non-HDL-C reduced by: stated as reduction
Method: To evaluate the efficacy, safety, and tolerability of obicetrapib as an adjunct to high-intensity statin therapy, a placebo-controlled, double-blind, randomized, phase 2 study was carried out.
The study consisted of three arms: 1) 5 mg obicetrapib as adjunctive therapy; 2) 10 mg obicetrapib as adjunctive therapy and 3) a placebo arm. The second objective was to evaluate other lipoprotein lipid and apolipoprotein responses, safety and tolerability profiles, and plasma concentrations of obicetrapib during treatment and for several weeks of follow-up. Lastly, this study aimed to determine if different quantitative measures of LDL-C levels produced differences in the treatment effects of CETP inhibition.
This randomised, double-blind, placebo-controlled, parallel-group phase 2 trial was conducted in male and female patients (18-75 years), treated with high-intensity statin therapy, with LDL-C levels >70 mg/DL and TG levels < 400 mg/dL. Key exclusion criteria were patients with BMI > 40 kg/m; Significant cardiovascular disease; HbA1c > 10%; Uncontrolled hypertension; Active muscle disease; GFR < 60 ml/min; Hepatic dysfunction; Anemia; History of malignancy; Alcohol abuse; Treatment with investigational product; Treatment with PCSK9 inhibitor; Clinically significant condition; and/or prior exposure to a CETP inhibitor. Patients were recruited at 19 sites in the United States. The trial was approved by Independent Ethics Committees, and each patient provided written informed consent. The trial was conducted in accordance with the principles of the Declaration of Helsinki and Good Clinical Practice Guidelines and the protocol was registered on ClinicalTrials.gov (NCT04753606).
The screening period for this study took up to 2-weeks. Afterwards patients were randomized to placebo, 5 mg obicetrapib or 10 mg obicetrapib for an 8-week treatment period. After the treatment period, patients continued for a 4-week safety follow-up and a 15-week PK follow-up.
Patients were randomly assigned to receive one of the three treatments investigative treatments. All treatments were to be taken once daily with food for 8 weeks. Safety was assessed throughout the trial by monitoring adverse events and concomitant medication use, 12-lead electrocardiograms (ECGs), vital signs, laboratory safety assessments and physical examinations. Additional assessments included salivary cortisol, plasma aldosterone, high-sensitivity C-reactive protein (hsCRP) and endothelin 1.
Efficacy assessments included fasted lipid profiles including total cholesterol (TC), HDL-C, LDL-C, triglycerides, apolipoprotein B (ApoB), and derived parameters.
Total cholesterol and triglycerides were measured by homogenous enzymatic assay using a Modular analyser (cholesterol oxidase peroxidase-peroxidase aminophenazone phenol [CHOP-PAP]) method and a glycerol phosphate oxidase [GPO-PAP] method, respectively. Apolipoprotein B was measured by immunoturbidimetry using reagents from Rolf Greiner Biochemica (Germany) and N apoprotein standard serum from Siemens (Germany). LDL particle size was determined by gradient gel electrophoresis. HDL fraction was separated by a combined ultracentrifugation-precipitation method (β-quantification). HDL-2 and HDL-3 fractions were then separated by further ultracentrifugation. Total-cholesterol in HDL, HDL 2 and HLD-3 fractions, free cholesterol in HDL fraction, triglycerides in HDL fraction and phospholipids in plasma and HDL-fraction were measured using enzymatic methods and reagents from Diasys Diagnostics (Germany). The measurements were performed on an Olympus AU600 automatic analyzer and were calibrated using secondary standards from Roche Diagnostics (total-cholesterol, triglycerides) and Diasys Diagnostics (free cholesterol, phospholipids), respectively. Esterified cholesterol was calculated as the difference between total-cholesterol and free cholesterol.
The primary outcome measure was LDL-C (percent change). […]

[1] = 5 mg once daily for 8 weeks as adjunct to high-intensity statin therapy
[2] = 5 mg once daily, listed as obicetrapib
[3] = 10 mg once daily for 8 weeks as adjunct to high-intensity statin therapy
[4] = 10 mg once daily, listed as obicetrapib

Structure (SMILES): CCOC(=O)N1c2ccc(C(F)(F)F)cc2[C@@H](N(Cc2cc(C(F)(F)F)cc(C(F)(F)F)c2)c2ncc(OCCCC(=O)O)cn2)C[C@H]1CC [Obicetrapib, (2R,4S)-4-{[3,5-bis(trifluoromethyl)benzyl]-[5-(3-carboxypropoxy)pyrimidin-2-yl]amino}-2-ethyl-6-trifluoromethyl-3,4-dihydro-2H-quinoline-1-carboxylic acid ethyl ester]
- ApoB, Change from Baseline Median mg/dL [1]: -22.0 mg/dL
- ApoB, EoT Median [1]: 65.0 mg/dL
- HDL-C, Change from Baseline Median mg/dL [1]: 60.0 mg/dL
- HDL-C, EoT Median [1]: 107.0 mg/dL
- LDL-C by Friedewald, EoT Median [1]: 51.0 mg/dL
- LDL-C by PUC, EoT Median [1]: 53.0 mg/dL
- Non-HDL-C, EoT Median [1]: 71 mg/dL
- LDL-C by PUC, % Change from Baseline LS mean (95% CI) (5 mg once daily): -37.98%
- Apo A1 Week 8 change, Median (min, max) (5 mg once daily): 44.6% and 44.6 (-10.0, 87.1) %
- LDL-C (Martin-Hopkins) Week 8 change, Median (min, max) (5 mg once daily): -42.5 (-80.8, 74.4) %
- Lp(a) Week 8 change, Median (min, max) (5 mg once daily): -33.8 (-84.6, 93.8) %
- TG Week 8 change, Median (min, max) (5 mg once daily): -11.0 (-53.3, 86.7) %
- VLDL-C Week 8 change, Median (min, max) (5 mg once daily): -11.5 (-53.5, 83.3) %
- TG Week 8 change, Median (min, max) [2]: -11.0%
- VLDL-C Week 8 change, Median (min, max) [2]: -11.5%
- Apo A1 Week 8 change, LS Mean ± SE (5 mg once daily): 41.1 ± 3.04%
- Apo B Week 8 change, LS Mean ± SE (5 mg once daily): -22.4 ± 2.58%
- HDL-C Week 8 change, LS Mean ± SE (5 mg once daily): 122 ± 6.59%
- LDL-C (Martin-Hopkins) Week 8 change, LS Mean ± SE (5 mg once daily): -39.6 ± 3.68%
- Lp(a) Week 8 change, LS Mean ± SE (5 mg once daily): -30.9 ± 4.43%
- Non-HDL-C Week 8 change, LS Mean ± SE (5 mg once daily): -34.4 ± 3.18%
- TG Week 8 change, LS Mean ± SE (5 mg once daily): -6.63 ± 5.32%
- VLDL-C Week 8 change, LS Mean ± SE (5 mg once daily): -6.02 ± 5.24%
- LDL-C (PUC) Week 8 change, LS Mean ± SE (5 mg once daily): -35.7 ± 3.31%
- ApoB, % change from Baseline Median (5 mg once daily): -24.40% and -24.4 (-58.5, 47.4) %
- HDL-C, % change from Baseline Median (5 mg once daily): 135% and 135.4% and 135 (-26.4, 213) %
- LDL-C by Friedewald, % Change from Baseline (median) (5 mg once daily): -42.90% and -42.9 (-81.9, 72.4) %
- LDL-C by PUC, % Change from Baseline (median) (5 mg once daily): -41.5% and -41.45% and -41.5 (-71.2, 62.3) %
- Non-HDL-C, % Change from Baseline (median) (5 mg once daily): -38.9% and -38.9 (-65.6, 66.3) %
- LDL-C by PUC, % Change from Baseline (median) [2]: -41.5%
- LDL-C by Friedewald, % Change from Baseline LS mean (5 mg once daily): -37.94% and -38.0 ± 3.49%
- LDL-C reduced from baseline (Friedewald formula) (5 mg): 42.9%
- Apo B reduced by (5 mg): 24.4%
- Lp(a) reduced by (5 mg): 33.8%
- non-HDL-C reduced by (5 mg): 38.9%
- ApoB, Change from Baseline Median mg/dL [3]: -24.5 mg/dL
- ApoB, EoT Median [3]: 58.5 mg/dL
- HDL-C, Change from Baseline Median mg/dL [3]: 72.0 mg/dL
- HDL-C, EoT Median [3]: 117.5 mg/dL
- LDL-C by Friedewald, EoT Median [3]: 52.0 mg/dL
- LDL-C by PUC, EoT Median [3]: 49.5 mg/dL
- Non-HDL-C, EoT Median [3]: 69 mg/dL
- LDL-C by PUC, % Change from Baseline LS mean (95% CI) (10 mg once daily): -44.15%
- Apo A1 Week 8 change, Median (min, max) (10 mg once daily): 47.8% and 47.8 (13.5, 106) %
- LDL-C (Martin-Hopkins) Week 8 change, Median (min, max) (10 mg once daily): -49.2 (-77.0, 28.1) %
- Lp(a) Week 8 change, Median (min, max) (10 mg once daily): -56.5 (-85.7, 18.3) %
- TG Week 8 change, Median (min, max) (10 mg once daily): -7.85 (-63.7, 129) %
- VLDL-C Week 8 change, Median (min, max) (10 mg once daily): -7.90 (-44.4, 125) %
- LDL-C (Martin-Hopkins) Week 8 change, Median (min, max) [4]: -49.2%
- Apo A1 Week 8 change, LS Mean ± SE (10 mg once daily): 52.3 ± 3.04%
- Apo B Week 8 change, LS Mean ± SE (10 mg once daily): -28.1 ± 2.56%
- HDL-C Week 8 change, LS Mean ± SE (10 mg once daily): 157 ± 6.54%
- LDL-C (Martin-Hopkins) Week 8 change, LS Mean ± SE (10 mg once daily): -46.9 ± 3.65%
- Lp(a) Week 8 change, LS Mean ± SE (10 mg once daily): -42.0 ± 4.33%
- Non-HDL-C Week 8 change, LS Mean ± SE (10 mg once daily): -39.9 ± 3.15%
- TG Week 8 change, LS Mean ± SE (10 mg once daily): 2.45 ± 5.27%
- VLDL-C Week 8 change, LS Mean ± SE (10 mg once daily): 3.08 ± 5.19%
- LDL-C (PUC) Week 8 change, LS Mean ± SE (10 mg once daily): -46.8 ± 3.23%
- ApoB, % change from Baseline Median (10 mg once daily): -29.75% and -29.8 (-58.4, 13.0) %
- HDL-C, % change from Baseline Median (10 mg once daily): 165% and 165 (55.1, 286) %
- LDL-C by Friedewald, % Change from Baseline (median) (10 mg once daily): -45.65% and -45.7 (-78.0, 26.2) %
- LDL-C by PUC, % Change from Baseline (median) (10 mg once daily): -50.8% and -50.75% and -50.8 (-76.9, 15.6) %
- Non-HDL-C, % Change from Baseline (median) (10 mg once daily): -44.4% and -44.4 (-70.2, 22.5) %
- LDL-C by PUC, % Change from Baseline (median) [4]: -50.8%
- LDL-C by Friedewald, % Change from Baseline LS mean (10 mg once daily): -44.15% and -44.2 ± 3.46%
- LDL-C reduced from baseline (Friedewald formula) (10 mg): 45.7%
- Apo B reduced by (10 mg): 29.8%
- Lp(a) reduced by (10 mg): 56.5%
- non-HDL-C reduced by (10 mg): 44.4%
- median Apo B reductions from baseline (10 mg, post-hoc analysis, individuals with baseline Apo B >100 mg/dL): 39%
